The test system of the assay is TNFα production. Description: Measure of TNFα production inhibitory activity (serum TNFα after LPS challenge in mice). The class given is in vivo. Conditions: female BALB/c mice, 7 weeks; test compound intravenous; LPS 100 μg/mouse intraperitoneal; blood 90 minutes after LPS; serum TNFα by ELISA; read-out: ED50 (50% effective dose) for inhibition of serum level of TNFα. On the procedure: (i) Measure of TNFα Production Inhibitory Activity
Measure of TNFα production inhibitory activity was prepared according to procedures described previously (Kazuo Ohuchi, SEIBUTSUKAGAKUJIKKENKOZA, 12, 707 (1994) Hirokawa, Tokyo). Female mice (BALB/c, 7 weeks) were injected with test compounds via intravenous administration and with LPS (100 μg/mouse) (Bacto W. E. coli 055:B5; DIFCO Lab.) via in traperitoneal administration. At 90 minutes after LPS challenge, blood with heparin was obtained from abdominal aorta, and serum was stored at −80° C. Serum level of TNFα was determined by mouse cytokine ELISA kit (Genzyme). Inhibition and 50% effective dose (ED50) of test compounds were calculated as 100% of the difference of serum level of TNFα between in control and in LPS. ED50 of some compounds produced by the following examples were 0.01-100 mg/kg.
For orientation: An ELISA detects its analyte on a solid surface through an enzyme-linked reagent.

The structures appear in SMILES notation.

Results on one molecule are retold here after patent publication US6495533B1, “Drugs containing phosphoric acid derivatives as the active ingredient” (Ono Pharmaceutical Co., Ltd., priority 1999, dated 2002).

As a reminder, the ED50 is the dose that gives a 50% effect, or the effect in half of the subjects. On to `CCCCCCCC(=O)N[C@@H](COP(=O)(O)O)c1ccccc1` [example 8], for which the ED50 turned out to be 2.6 mg/kg.
